Biological target: human recombinant P2X7 receptor (Homo sapiens (Human), UniProt Q99572)
Assay: YO-PRO assay: P2X7 receptor antagonistic activity
Assay type: cell-based
Conditions: HEK cells expressing human P2X7
Description: The P2X7 receptor antagonistic activity of the compounds of formula (I) is determined in accordance with the following experimental method.
Cell Line Generation and YO-PRO Assay
Cell line generation was performed in general according to established molecular cloning protocols. Specifically, RNA was extracted from human whole blood using the Qiagen RNeasy kit (Qiagen, CH) according to the manufacturer's instructions. Subsequently cDNA was made (Superscript II, Invitrogen AG, CH) and the human P2X7 gene (genbank ref. BC011913) was amplified with the following primers: […] and […]. The amplified sequence was subsequently ligated into a pcDNA3.1 (+) NotI, NheI digested plasmid. […] Following a 24 h exposure to DNA, cells were trypsinized and re-seeded at low density in the presence of 250 μg Geneticin. Geneticin resistant cells were then selected during two consecutive rounds of cloning by serial limiting dilution with visual inspection. Individual clones were screened for P2X7 expression by applying ATP and recording the resultant uptake of YO-PRO1. Specific cell clones were chosen based on RNA and protein expression. HEK cells stably expressing P2X7 were used to screen drugs using the YO-PRO1 assay. Cells were grown to confluency in adherent culture at 37° C. in a humidified 5% CO2 incubator (split 1/5 every 3-4 days with DMEM, 10% FCS, 1% Penicillin/Streptomycin, 250 μg/ml Geneticin). Adherent cells were detached by incubation with Trypsine (1 ml per 165 cm^2 dish) for 2 minutes, then washed off with 10 ml PBS (without Mg^2+ and Ca^2+), and resuspended in DMEM, 10% FCS, 1% Penicillin/Streptomycin, no Geneticin. […] During this time period, four time points were taken. Each time point comprised the average of several measurements made within a few seconds. […] The FLIPR tetra was equipped with Molecular Devices Screen Works system control software to define and run experimental protocols. […] For IC50 measurements the maximum intensity is plotted against the concentration of compound to determine IC50 values.

Chain of human recombinant P2X7 receptor (Q99572 whole entry): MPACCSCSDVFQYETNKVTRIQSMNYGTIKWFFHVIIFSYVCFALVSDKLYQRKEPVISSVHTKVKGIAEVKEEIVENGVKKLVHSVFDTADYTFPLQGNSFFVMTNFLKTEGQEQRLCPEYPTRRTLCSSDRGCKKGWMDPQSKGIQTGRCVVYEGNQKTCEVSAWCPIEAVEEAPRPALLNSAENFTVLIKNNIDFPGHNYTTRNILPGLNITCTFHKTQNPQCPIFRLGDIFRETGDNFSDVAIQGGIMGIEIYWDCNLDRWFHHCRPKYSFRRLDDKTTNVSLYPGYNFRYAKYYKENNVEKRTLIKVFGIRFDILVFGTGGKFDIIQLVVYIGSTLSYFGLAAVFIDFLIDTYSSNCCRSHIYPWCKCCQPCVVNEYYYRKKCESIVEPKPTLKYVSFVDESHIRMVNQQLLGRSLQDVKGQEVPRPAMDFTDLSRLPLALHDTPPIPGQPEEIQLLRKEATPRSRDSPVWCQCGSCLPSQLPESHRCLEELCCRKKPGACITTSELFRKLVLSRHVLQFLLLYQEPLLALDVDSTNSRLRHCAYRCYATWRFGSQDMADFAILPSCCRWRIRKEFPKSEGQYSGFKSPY

Q: For O=C(Cc1ccc(Oc2ccccc2)cc1)NC1COc2ncccc21 (racemic) [Example 36, rac-N-(2,3-Dihydro-furo[2,3-b]pyridin-3-yl)-2-(4-phenoxy-phenyl)-acetamide], which IC50 is on record?
A: 1480 nM

Q: For O=C(NC1COc2ncccc21)C1CCc2cc(Cl)cc(Cl)c21 (single isomer, unassigned) [Example 147, 5,7-dichloro-N-(2,3-dihydrofuro[2,3-b]pyridin-3-yl)-2,3-dihydro-1H-indene-1-carboxamide], which IC50 is on record?
A: 40 nM

Q: With CCOc1cc(C)nc2c1C(NC(=O)Cc1cccc(C(F)(F)F)c1Cl)CO2 (racemic) [Example 136, rac-2-(2-Chloro-3-trifluoromethyl-phenyl)-N-(4-ethoxy-6-methyl-2,3-dihydro-furo[2,3-b]pyridin-3-yl)-acetamide] as the compound, how does the IC50 read?
A: > 10000 nM

Q: With CC(=O)c1cccc(CC(=O)NC2COc3ncccc32)c1Cl (racemic) [Example 111, rac-2-(3-Acetyl-2-chloro-phenyl)-N-(2,3-dihydro-furo[2,3-b]pyridin-3-yl)-acetamide] as the compound, how does the IC50 read?
A: 416 nM

Q: [2H]C([2H])([2H])C(C(=O)NC1COc2ncccc21)c1ccc(Cl)cc1Cl (stereo not drawn) [Example 86, 2-(2,4-Dichloro-phenyl)-2-trideuteromethyl-N-2,3-dihydro-furo[2,3-b]pyridin-3-yl-acetamide] was tested. Which IC50 did it give?
A: 33 nM

Q: With CC(C(=O)NC1COc2ncccc21)c1ccc(Cl)cc1Cl (single isomer, unassigned) [Example 93, 2-(2,4-Dichloro-phenyl)-N-2,3-dihydro-furo[2,3-b]pyridin-3-yl-propionamide] as the compound, how does the IC50 read?
A: 137 nM

Q: With Cc1cc(Cl)cc(Cl)c1CC(=O)NC1COc2nccc(C)c21 (racemic) [Example 138, rac-2-(2,4-Dichloro-6-methyl-phenyl)-N-(4-methyl-2,3-dihydro-furo[2,3-b]pyridin-3-yl)-acetamide] as the compound, how does the IC50 read?
A: 99 nM

Q: With NC(=O)c1cccc(CC(=O)NC2COc3ncccc32)c1Cl (racemic) [Example 80, rac-2-Chloro-3-[(2,3-dihydro-furo[2,3-b]pyridin-3-ylcarbamoyl)-methyl]-benzamide] as the compound, how does the IC50 read?
A: 1240 nM

Q: For Cc1cc(Cl)cc(Cl)c1CC(=O)NC1COc2ncccc21 (single isomer, unassigned) [Example 7, 2-(2,4-Dichloro-6-methyl-phenyl)-N-(2,3-dihydro-furo[2,3-b]pyridin-3-yl)-acetamide], which IC50 is on record?
A: 3.5 nM

Q: Which IC50 does the source give for O=C(Cc1cccc(C(F)(F)F)c1Cl)NC1COc2c[n+]([O-])ccc21 (racemic) [Example 148, rac-2-(2-Chloro-3-trifluoromethyl-phenyl)-N-(6-oxy-2,3-dihydro-furo[2,3-c]pyridin-3-yl)-acetamide] here?
A: 165 nM

Q: With O=C(NC1COc2ncccc21)C1CCc2cc(Cl)cc(Cl)c21 (single isomer, unassigned) [Example 146, 5,7-dichloro-N-(2,3-dihydrofuro[2,3-b]pyridin-3-yl)-2,3-dihydro-1H-indene-1-carboxamide] as the compound, how does the IC50 read?
A: 160 nM

Q: O=C(Cc1c(F)ccc(Cl)c1Cl)NC1COc2ncccc21 (racemic) [Example 67, rac-2-(2,3-Dichloro-6-fluoro-phenyl)-N-(2,3-dihydro-furo[2,3-b]pyridin-3-yl)-acetamide] was tested. Which IC50 did it give?
A: 210 nM

Q: How did the IC50 turn out when Cc1ccc2c(n1)OCC2NC(=O)Cc1cccc(C(F)(F)F)c1Cl (racemic) [Example 134, rac-2-(2-Chloro-3-trifluoromethyl-phenyl)-N-(6-methyl-2,3-dihydro-furo[2,3-b]pyridin-3-yl)-acetamide] was run?
A: 21 nM

Q: For O=C(CCCc1ccc(F)cc1)NC1COc2ncccc21 (racemic) [Example 82, rac-N-(2,3-Dihydro-furo[2,3-b]pyridin-3-yl)-4-(4-fluoro-phenyl)-butyramide], which IC50 is on record?
A: 2030 nM

Q: CC(C(=O)NC1COc2ncccc21)c1ccc(Cl)cc1Cl (single isomer, unassigned) [Example 94, 2-(2,4-Dichloro-phenyl)-N-2,3-dihydro-furo[2,3-b]pyridin-3-yl-propionamide] was tested. Which IC50 did it give?
A: 11 nM

Source: US9221832B2, “Heterocyclic amide derivatives as P2X7 receptor antagonists” (ACTELION PHARMACEUTICALS LTD., priority 2011, dated 2015)
